The values that follow are results of earlier work, collected in US20100143460A1, “SOLID DOSAGE FORMS COMPRISING ALISKIREN AND PHARMACEUTICALLY ACCEPTABLE SALTS THEREOF” (KRKA, TOVARNA ZDRAVIL, D.D., NOVO MESTO, priority 2007, published 2010).

For the data set the following is noted: described in EP-A-1 517 682.

Molecules are shown by their SMILES.

For the compound `COCCCOc1cc(C[C@@H](C[C@H](N)[C@@H](O)C[C@H](C(=O)NCC(C)(C)C(N)=O)C(C)C)C(C)C)ccc1OC` [aliskiren], the solubility in water result is listed as “very readily soluble in water”.
